Values quoted from earlier work as cited in patent US9968629B2, “Product and method for supporting uridine homeostasis” (N.V. Nutricia, priority 2012, dated 2018).

O=c1ccn([C@@H]2O[C@H](CO)[C@@H](O)[C@H]2O)c(=O)[nH]1 [uridine]
time after which all administered uridine has been used or is catabolised (FIG. 3 in WO 2007/089703, plasma uridine levels): 6 to 8 h
toxic side effects (high doses of uridine): phlebitis, pyrogenic reactions and diarrhea
half time in the plasma (plasma): 3 to 4 h
